This assay concerns recombinant NL4-3 virus (Renilla luciferase in nef, Gag P373S; NLRluc) in MT-2 cells. In words: whole plant or invertebrate. To be noted: Renilla. It is filed as cell-based, HIV. The method, boiled down:
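Cells grown in serum-supplemented RPMI were exposed to graded inhibitor concentrations during a 4-5 day infection. Antiviral effect was then derived from luminescence after adding a combined lysis and dual-luciferase substrate mixture to each well.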

Where [1] appears, read: NL43, luciferase activity in cells infected for 4-5 days with NLRluc recombinants, serial dilutions of inhibitor, class symbols (key in Table 1), read-out: EC50.

Where two headings read alike, the source gives them in different places.

Usually EC50 stands for the concentration that produces a half-maximal response.

As for `C=C(C)[C@@H]1CC[C@]2(NCCN3CCN(S(=O)(=O)c4cn(C)cn4)CC3)CC[C@]3(C)[C@H](CC[C@@H]4[C@@]5(C)CC=C(c6ccc(C(=O)O)cc6)C(C)(C)[C@@H]5CC[C@]43C)[C@@H]12` [Example B43, 4-((1R,3aS,5aR,5bR,7aR,11aS,11bR,13aR,13bR)-5a,5b,8,8,11a-pentamethyl-3a-((2-(4-((1-methyl-1H-imidazol-4-yl)sulfonyl)piperazin-1-yl)ethyl)amino)-1-(prop-1-en-2-yl)-2,3,3a,4,5,5a,5b,6,7,7a,8,11,11a,11b,12,13,13a,13b-octadecahydro-1H-cyclopenta[a]chrysen-9-yl)benzoic acid], the EC50 under setting [1] was less than 100 nM.

As to `C=C(C)[C@@H]1CC[C@]2(NCCNS(=O)(=O)C(C)C)CC[C@]3(C)[C@H](CC[C@@H]4[C@@]5(C)CC=C(c6ccc(C(=O)O)cc6)C(C)(C)[C@@H]5CC[C@]43C)[C@@H]12` [Example B30, 4-((1R,3aS,5aR,5bR,7aR,11aS,11bR,13aR,13bR)-5a,5b,8,8,11a-pentamethyl-3a-((2-(1-methylethylsulfonamido)ethyl)amino)-1-(prop-1-en-2-yl)-2,3,3a,4,5,5a,5b,6,7,7a,8,11,11a,11b,12,13,13a,13b-octadecahydro-1H-cyclopenta[a]chrysen-9-yl)benzoic acid], the EC50 under setting [1] was less than 100 nM.

On to `C=C(C)[C@@H]1CC[C@]2(NCCNc3ccc(C)nn3)CC[C@]3(C)[C@H](CC[C@@H]4[C@@]5(C)CC=C(c6ccc(C(=O)O)cc6)C(C)(C)[C@@H]5CC[C@]43C)[C@@H]12` [Example 194, 4-((1R,3aS,5aR,5bR,7aR,11aS,11bR,13aR,13bR)-5a,5b,8,8,11a-pentamethyl-3a-(2-(6-methylpyridazin-3-ylamino)ethylamino)-1-(prop-1-en-2-yl)-2,3,3a,4,5,5a,5b,6,7,7a,8,11,11a,11b,12,13,13a,13b-octadecahydro-1H-cyclopenta[a]chrysen-9-yl)benzoic acid], for which the EC50 under setting [1] is less than 100 nM.

Take `C=C(C)[C@@H]1CC[C@]2(NCCN3CCN(C(=O)C4(C)CC4)CC3)CC[C@]3(C)[C@H](CC[C@@H]4[C@@]5(C)CC=C(c6ccc(C(=O)O)cc6)C(C)(C)[C@@H]5CC[C@]43C)[C@@H]12` [Example B63, 4-((1R,3aS,5aR,5bR,7aR,11aS,11bR,13aR,13bR)-5a,5b,8,8,11a-pentamethyl-3a-((2-(4-(1-methylcyclopropanecarbonyl)piperazin-1-yl)ethyl)amino)-1-(prop-1-en-2-yl)-2,3,3a,4,5,5a,5b,6,7,7a,8,11,11a,11b,12,13,13a,13b-octadecahydro-1H-cyclopenta[a]chrysen-9-yl)benzoic acid]: the EC50 under setting [1] was less than 100 nM.

With `C=C(C)[C@@H]1CC[C@]2(NC(=O)[C@@H]3C[C@H](NC(=O)OCc4ccccc4)C3(C)C)CC[C@]3(C)[C@H](CC[C@@H]4[C@@]5(C)CC=C(c6ccc(C(=O)O)cc6)C(C)(C)[C@@H]5CC[C@]43C)[C@@H]12` [Example 130-3, 4-((1R,3aS,5aR,5bR,7aR,11aS,11bR,13aR,13bR)-3a-((1R,3S)-3-(((benzyloxy)carbonyl)amino)-2,2-dimethylcyclobutanecarboxamido)-5a,5b,8,8,11a-pentamethyl-1-(prop-1-en-2-yl)-2,3,3a,4,5,5a,5b,6,7,7a,8,11,11a,11b,12,13,13a,13b-octadecahydro-1H-cyclopenta[a]chrysen-9-yl)benzoic acid], the EC50 under setting [1] is less than 100 nM.

As to `C=C(C)[C@@H]1CC[C@]2(NCCN3CCN(S(=O)(=O)CC(C)C)CC3)CC[C@]3(C)[C@H](CC[C@@H]4[C@@]5(C)CC=C(c6ccc(C(=O)O)cc6)C(C)(C)[C@@H]5CC[C@]43C)[C@@H]12` [Example B35, 4-((1R,3aS,5aR,5bR,7aR,11aS,11bR,13aR,13bR)-3a-((2-(4-(isobutylsulfonyl)piperazin-1-yl)ethyl)amino)-5a,5b,8,8,11a-pentamethyl-1-(prop-1-en-2-yl)-2,3,3a,4,5,5a,5b,6,7,7a,8,11,11a,11b,12,13,13a,13b-octadecahydro-1H-cyclopenta[a]chrysen-9-yl)benzoic acid], the EC50 under setting [1] is less than 100 nM.

As to `C=C(C)[C@@H]1CC[C@]2(NCCNc3cccnn3)CC[C@]3(C)[C@H](CC[C@@H]4[C@@]5(C)CC=C(c6ccc(C(=O)O)cc6)C(C)(C)[C@@H]5CC[C@]43C)[C@@H]12` [Example 200, 4-((1R,3aS,5aR,5bR,7aR,11aS,11bR,13aR,13bR)-5a,5b,8,8,11a-pentamethyl-1-(prop-1-en-2-yl)-3a-(2-(pyridazin-3-ylamino)ethylamino)-2,3,3a,4,5,5a,5b,6,7,7a,8,11,11a,11b,12,13,13a,13b-octadecahydro-1H-cyclopenta[a]chrysen-9-yl)benzoic acid], the EC50 (NL43) is less than 100 nM.

For the compound `C=C(C)[C@@H]1CC[C@]2(NCCN3CCN(C(=O)C(C)c4ccccc4)CC3)CC[C@]3(C)[C@H](CC[C@@H]4[C@@]5(C)CC=C(c6ccc(C(=O)O)cc6)C(C)(C)[C@@H]5CC[C@]43C)[C@@H]12` (stereo partly drawn) [Example B58, 4-((1R,3aS,5aR,5bR,7aR,11aS,11bR,13aR,13bR)-5a,5b,8,8,11a-pentamethyl-3a-((2-(4-(2-phenylpropanoyl)piperazin-1-yl)ethyl)amino)-1-(prop-1-en-2-yl)-2,3,3a,4,5,5a,5b,6,7,7a,8,11,11a,11b,12,13,13a,13b-octadecahydro-1H-cyclopenta[a]chrysen-9-yl)benzoic acid], the EC50 under setting [1] is less than 100 nM.

Consider `C=C(C)[C@@H]1CC[C@]2(NC(=O)NCCNC(C)=O)CC[C@]3(C)[C@H](CC[C@@H]4[C@@]5(C)CC=C(c6ccc(C(=O)O)cc6)C(C)(C)[C@@H]5CC[C@]43C)[C@@H]12` [Example 26, 4-((1R,3aS,5aR,5bR,7aR,11aS,11bR,13aR,13bR)-3a-(3-(2-acetamidoethyl)ureido)-5a,5b,8,8,11a-pentamethyl-1-(prop-1-en-2-yl)-2,3,3a,4,5,5a,5b,6,7,7a,8,11,11a,11b,12,13,13a,13b-octadecahydro-1H-cyclopenta[a]chrysen-9-yl)benzoic acid], for which the EC50 under setting [1] is less than 100 nM.

In the case of `C=C(C)[C@@H]1CC[C@]2(NCCN(CCC(=O)O)CCC(=O)O)CC[C@]3(C)[C@H](CC[C@@H]4[C@@]5(C)CC=C(c6ccc(C(=O)O)cc6)C(C)(C)[C@@H]5CC[C@]43C)[C@@H]12` [Example 141, 3,3′-(2-((1R,3aS,5aR,5bR,7aR,11aS,11bR,13aR,13bR)-9-(4-carboxyphenyl)-5a,5b,8,8,11a-pentamethyl-1-(prop-1-en-2-yl)-2,3,3a,4,5,5a,5b,6,7,7a,8,11,11a,11b,12,13,13a,13b-octadecahydro-1H-cyclopenta[a]chrysen-3a-ylamino)ethylazanediyl)dipropanoic acid], under setting [1], the concentration giving a half-maximal response (EC50) is less than 100 nM.

Regarding `C=C(C)[C@@H]1CC[C@]2(NC(=O)N3CCN(C4CCCC4)C(=O)C3)CC[C@]3(C)[C@H](CC[C@@H]4[C@@]5(C)CC=C(c6ccc(C(=O)O)cc6)C(C)(C)[C@@H]5CC[C@]43C)[C@@H]12` [Example 37, 4-((1R,3aS,5aR,5bR,7aR,11aS,11bR,13aR,13bR)-3a-(4-cyclopentyl-3-oxopiperazine-1-carboxamido)-5a,5b,8,8,11a-pentamethyl-1-(prop-1-en-2-yl)-2,3,3a,4,5,5a,5b,6,7,7a,8,11,11a,11b,12,13,13a,13b-octadecahydro-1H-cyclopenta[a]chrysen-9-yl)benzoic acid], under “NL43, luciferase activity in cells infected for 4-5 days with NLRluc recombinants, serial dilutions of inhibitor, numeric values, read-out: EC50”, the EC50 came out at 4 nM.

(Values after patent publication US20140343000A1 (priority 2011, published 2014).)
